Laboratory results published in US20210308089A1, “METHODS OF TREATING AND/OR PREVENTING VIRAL INFECTIONS AND/OR DISEASES CAUSED BY VIRUSES IN A SUBJECT IN NEED THEREOF” (priority 2020, published 2021).

Tested on: patients of the REDUCE-IT and earlier EPA placebo-controlled trials
Format: in vivo, human
Conditions: R-I

CC/C=C\C/C=C\C/C=C\C/C=C\C/C=C\CCCC(=O)OCC [icosapent ethyl, eicosapentaenoic acid ethyl ester]
ARR: Platelet count: PCS Low <100 × 10^3/uL: −0.6% | ARR: SBP High (≥160 mmHg): −1.7% | ARR: SBP High and rose ≥20 mmHg: −1.1% | ARR: SBP Low (≤90 mmHg): 0.5% | ARR: SBP dropped ≥20 mmHg: 2.6% | ARR: SBP low and dropped ≥20 mmHg: 0.2% | ARR: SBP rose ≥20 mmHg: −0.7% | ARR: Urate high (Day 120): 4.4% | ARR: Urate high (Day 360): 3.9% | ARR: Urate high (Day 720): 3.4% | ARR: Urate high (Day 1080): 1.2% | ARR: Urate high (Day 1440): 1.3% | ARR: Urate high (Day 1800): 1.0% | ARR: Urate shift: normal to high (Day 120): 2.8% | ARR: Urate shift: normal to high (Day 360): 3.0% | ARR: Urate shift: normal to high (Day 720): 2.5% | ARR: Urate shift: normal to high (Day 1080): 0.8% | ARR: Urate shift: normal to high (Day 1440): 0.6% | ARR: Urate shift: normal to high (Day 1800): 0.2% | ARR: Urate shift: normal to low (Day 120): 0.1% | ARR: Urate shift: normal to low (Day 360): −0.1% | ARR: Urate shift: normal to low (Day 720): −0.2% | ARR: Urate shift: normal to low (Day 1080): −0.1% | ARR: Urate shift: normal to low (Day 1440): −0.4% | ARR: Uric acid PCS High >7.5 mg/dL (Women): 0.8% | ARR: Uric acid PCS High >8.0 mg/dL (Men): 4.2% | ARR: Uric acid PCS Low <1.9 mg/dL (Women): 0.0% | ARR: Uric acid PCS Low <2.5 mg/dL (Men): −0.2% | NNT: ALP high (Day 120): 67 | NNT: ALP high (Day 360): 50 | NNT: ALP high (Day 720): 41 | NNT: ALP high (Day 1080): 33 | NNT: ALP high (Day 1440): 34 | NNT: ALP high (Day 1800): 37 | NNT: ALP shift: normal to high (Day 120): 78 | NNT: ALP shift: normal to high (Day 360): 54 | NNT: ALP shift: normal to high (Day 720): 39 | NNT: ALP shift: normal to high (Day 1080): 34 | NNT: ALP shift: normal to high (Day 1440): 37 | NNT: ALP shift: normal to high (Day 1800): 39 | NNT: ALP shift: normal to low (Day 120): −267 | NNT: ALP shift: normal to low (Day 360): −359 | NNT: ALP shift: normal to low (Day 720): −252 | NNT: ALP shift: normal to low (Day 1080): −360 | NNT: ALP shift: normal to low (Day 1440): −956 | NNT: Albumin high (Day 120): −133 | NNT: Albumin high (Day 360): −138 | NNT: Albumin high (Day 720): −156 | NNT: Albumin high (Day 1080): −140 | NNT: Albumin high (Day 1440): −132 | NNT: Albumin shift: normal to high (Day 120): −123 | NNT: Albumin shift: normal to high (Day 360): −137 | NNT: Albumin shift: normal to high (Day 720): −140 | NNT: Albumin shift: normal to high (Day 1080): −248 | NNT: Albumin shift: normal to high (Day 1440): −145 | NNT: Bilirubin >1x ULN to 2x ULN: −29 | NNT: Bilirubin >2x ULN to 3x ULN: −497 | NNT: Bilirubin high (Day 120): −42 | NNT: Bilirubin high (Day 360): −50 | NNT: Bilirubin high (Day 720): −38 | NNT: Bilirubin high (Day 1080): −50 | NNT: Bilirubin high (Day 1440): −40 | NNT: Bilirubin high (Day 1800): −43 | NNT: Bilirubin shift: normal to high (Day 120): −77 | NNT: Bilirubin shift: normal to high (Day 360): −80 | NNT: Bilirubin shift: normal to high (Day 720): −76 | NNT: Bilirubin shift: normal to high (Day 1080): −95 | NNT: Bilirubin shift: normal to high (Day 1440): −57 | NNT: Bilirubin shift: normal to high (Day 1800): −81 | NNT: Calcium high (Day 120): 430 | NNT: Calcium high (Day 360): 1019 | NNT: Calcium high (Day 720): 325 | NNT: Calcium low (Day 120): −1944 | NNT: Calcium low (Day 360): −410 | NNT: Calcium low (Day 720): −567 | NNT: DBP High (≥100 mmHg): −165 | NNT: DBP High and Rose ≥10 mmHg: −264 | NNT: DBP Low (≤50 mmHG): −794 | NNT: DBP Low and dropped ≥10 mmHg: −3916 | NNT: DBP dropped ≥10 mmHG: −32 | NNT: DBP rose ≥10 mmHg: 158 | NNT: High platelets (Day 720): −162 | NNT: Low platelets (Day 360): 54 | NNT: Low platelets (Day 720): 144 | NNT: Low platelets (Day 1080): 85 | NNT: Platelet count: PCS Low <100 × 10^3/uL: 166 | NNT: SBP High (≥160 mmHg): 58 | NNT: SBP High and rose ≥20 mmHg: 87 | NNT: SBP Low (≤90 mmHg): −221 | NNT: SBP dropped ≥20 mmHg: −38 | NNT: SBP low and dropped ≥20 mmHg: −497 | NNT: SBP rose ≥20 mmHg: 140 | NNT: Urate high (Day 120): −22 | NNT: Urate high (Day 360): −26 | NNT: Urate high (Day 720): −29 | NNT: Urate high (Day 1080): −81 | NNT: Urate high (Day 1440): −76 | NNT: Urate high (Day 1800): −103 | NNT: Urate shift: normal to high (Day 120): −36 | NNT: Urate shift: normal to high (Day 360): −33 | NNT: Urate shift: normal to high (Day 720): −39 | NNT: Urate shift: normal to high (Day 1080): −127 | NNT: Urate shift: normal to high (Day 1440): −160 | NNT: Urate shift: normal to high (Day 1800): −422 | NNT: Urate shift: normal to low (Day 120): −1647 | NNT: Urate shift: normal to low (Day 360): 1418 | NNT: Urate shift: normal to low (Day 720): 533 | NNT: Urate shift: normal to low (Day 1080): 740 | NNT: Urate shift: normal to low (Day 1440): 280 | NNT: Uric acid PCS High >7.5 mg/dL (Women): −120 | NNT: Uric acid PCS High >8.0 mg/dL (Men): −24 | NNT: Uric acid PCS Low <1.9 mg/dL (Women): −1.58e+07 | NNT: Uric acid PCS Low <2.5 mg/dL (Men): 569 | Placebo-Adjusted % Change: Alkaline phosphatase (Day 120): −10.4% | Placebo-Adjusted % Change: Alkaline phosphatase (Day 360): −12.5% | Placebo-Adjusted % Change: Alkaline phosphatase (Day 720): −12.6% | Placebo-Adjusted % Change: Alkaline phosphatase (Day 1080): −14.1% | Placebo-Adjusted % Change: Alkaline phosphatase (Day 1440): −13.1% | Placebo-Adjusted % Change: DBP (Day 120): −.9% | Placebo-Adjusted % Change: DBP (Day 360): −.8% | Placebo-Adjusted % Change: DBP (Day 720): −.6% | Placebo-Adjusted % Change: DBP (Day 1080): −.5% | Placebo-Adjusted % Change: DBP (Day 1440): −.4% | Placebo-Adjusted % Change: SBP (Day 120): −1% | Placebo-Adjusted % Change: SBP (Day 360): −1.1% | Placebo-Adjusted % Change: SBP (Day 720): −1% | Placebo-Adjusted % Change: SBP (Day 1080): −1.1% | Placebo-Adjusted % Change: SBP (Day 1440): −.9% | Placebo-Adjusted % Change: Urate (Day 120): +4.31% | Placebo-Adjusted % Change: Urate (Day 360): +4.07% | Placebo-Adjusted % Change: Urate (Day 720): +3.66% | Placebo-Adjusted % Change: Urate (Day 1080): +2.94% | Placebo-Adjusted % Change: Urate (Day 1440): +3.23% | Risk Ratio (95% CI): ALP high (Day 120): 0.623 (0.485 to 0.801) 2 | Risk Ratio (95% CI): ALP high (Day 360): 0.542 (0.420 to 0.700) 3 | Risk Ratio (95% CI): ALP high (Day 720): 0.568 (0.449 to 0.717) 3 | Risk Ratio (95% CI): ALP high (Day 1080): 0.486 (0.375 to 0.630) 3 | Risk Ratio (95% CI): ALP high (Day 1440): 0.483 (0.362 to 0.644) 3 | Risk Ratio (95% CI): ALP high (Day 1800): 0.527 (0.362 to 0.767) 3 | Risk Ratio (95% CI): ALP shift: normal to high (Day 120): 0.401 (0.267 to 0.603) 3 | Risk Ratio (95% CI): ALP shift: normal to high (Day 360): 0.335 (0.227 to 0.497) 4 | Risk Ratio (95% CI): ALP shift: normal to high (Day 720): 0.397 (0.291 to 0.541) 4
